Assay results taken from patent publication US12187709B2 (Genentech, Inc., priority 2021, dated 2025).
pIC50, pKd: −log10 of the molar value.

Assays:
c-Cbl = c-Cbl (Homo sapiens (Human), UniProt P22681); assay: C-Cbl LCK Ub TR-FRET assay (C-cbl Lck HTRF); assay type: biochemical
Procedure, shortened: (§1)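 Detection reagents added, brief spin, 20 min RT. IC50 fit normalized to no-LCK (low) and DMSO (high) controls.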

Cbl-b = Cbl-b (Homo sapiens (Human), UniProt Q13191); assay: Cbl-b LCK Ub TR-FRET assay (Cbl-b Lck HTRF); assay type: biochemical; settings: for pIC50: Cbl-b LCK Ub TR-FRET
Cbl-b, sequence (Q13191 40-426): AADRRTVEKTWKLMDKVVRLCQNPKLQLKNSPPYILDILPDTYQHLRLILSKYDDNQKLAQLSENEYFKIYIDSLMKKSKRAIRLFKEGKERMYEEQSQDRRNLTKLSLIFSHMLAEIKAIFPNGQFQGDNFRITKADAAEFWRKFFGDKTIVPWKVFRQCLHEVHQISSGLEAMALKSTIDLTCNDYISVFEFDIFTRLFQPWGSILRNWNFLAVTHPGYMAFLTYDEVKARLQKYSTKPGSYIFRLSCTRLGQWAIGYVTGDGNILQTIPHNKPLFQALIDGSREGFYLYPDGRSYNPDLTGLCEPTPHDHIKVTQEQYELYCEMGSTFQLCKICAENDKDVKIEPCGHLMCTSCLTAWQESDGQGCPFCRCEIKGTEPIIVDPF
Procedure, shortened: as §1

[1] = biological target: Human Cbl-b (residues 40-426) (Homo sapiens (Human), UniProt Q13191); assay: Cbl-b SPR assay; assay type: binding; settings: for Fold of selectivity: C-cbl SPR Kd vs Cbl-b SPR Kd; for pKd: SPR, 20° C.
Human Cbl-b (residues 40-426), sequence (Q13191 40-426): as above
Procedure, shortened: (§2)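 Binding is measured by surface plasmon resonance against both isoforms, with double referencing and 1:1 kinetic fitting. Dissociation time is tuned to 4-5 half-lives.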

c-Cbl (residues 47-435) = c-Cbl (residues 47-435) (Homo sapiens (Human), UniProt P22681); assay: c-Cbl SPR assay; assay type: binding; settings: 20° C.
c-Cbl (residues 47-435), sequence (P22681 47-435): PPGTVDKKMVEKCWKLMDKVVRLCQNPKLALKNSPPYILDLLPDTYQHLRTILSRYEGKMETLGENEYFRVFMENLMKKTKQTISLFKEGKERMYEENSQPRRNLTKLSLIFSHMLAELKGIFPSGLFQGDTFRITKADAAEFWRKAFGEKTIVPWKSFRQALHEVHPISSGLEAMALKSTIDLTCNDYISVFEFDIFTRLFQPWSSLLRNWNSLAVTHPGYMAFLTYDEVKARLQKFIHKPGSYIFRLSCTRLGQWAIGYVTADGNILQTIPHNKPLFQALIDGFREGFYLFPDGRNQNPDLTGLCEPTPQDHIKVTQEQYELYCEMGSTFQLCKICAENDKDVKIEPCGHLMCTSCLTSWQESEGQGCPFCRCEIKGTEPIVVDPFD
Procedure, shortened: as §2

[2] = ratio C-cbl Lck HTRF IC50 / Cbl-b Lck HTRF IC50

c-Cbl, sequence (P22681 47-435): as above

Compound | pIC50 (c-Cbl) | pIC50 (Cbl-b; Example 121) | (fold-selectivity) Cbl-b and C-Cbl Selectivity (Cbl-b; [2]) [x] | Fold of selectivity [1] [×] | pKd [1] | pKd (c-Cbl (residues 47-435)) | pIC50 (Cbl-b) | fold-selectivity (Cbl-b over C-cbl) (Cbl-b; [2])
CO[C@H]1C[C@](c2cccc(N3Cc4c(cc(CNC[C@@H]5[C@@H](C)C5(F)F)cc4C(F)(F)F)C3=O)c2)(c2nncn2C)C1 [Compound 503, 6-(((((1S,3R)-2,2-difluoro-3-methylcyclopropyl)methyl)amino)methyl)-2-(3-((1r,3S)-3-methoxy-1-(4-methyl-4H-1,2,4-triazol-3-yl)cyclobutyl)phenyl)-4-(trifluoromethyl)isoindolin-1-one] | 7.59 | 8.07 | 3.0 | 22 | 8.70 | 7.36 | – | –
COc1cc(N2Cc3c(cc(CNC4(C)CCC4)cc3C(F)(F)F)C2=O)cc([C@]2(c3nncn3C)C[C@@H](OC)C2)c1 [Compound 200, 2-(3-methoxy-5-((1s,3s)-3-methoxy-1-(4-methyl-4H-1,2,4-triazol-3-yl)cyclobutyl)phenyl)-6-(((1-methylcyclobutyl)amino)methyl)-4-(trifluoromethyl)isoindolin-1-one] | 7.40 | – | – | 2.4 | 8.10 | 7.72 | 7.62 | 1.7x
Cn1cnnc1[C@]1(c2cccc(N3Cc4c(cc(CNC5(C)CCC5)cc4C(F)(F)F)C3=O)c2)C[C@H](CF)C1 [Compound 102, 2-(3-((1s,3s)-3-(fluoromethyl)-1-(4-methyl-4H-1,2,4-triazol-3-yl)cyclobutyl)phenyl)-6-(((1-methylcyclobutyl)amino)methyl)-4-(trifluoromethyl)isoindolin-1-one] | 7.96 | – | – | 4.7 | 9.08 | 8.41 | 8.14 | 1.5x
Cn1cnnc1[C@]1(c2cccc(N3Cc4c(cc(CNC5(C)CCC5)cc4C(F)(F)F)C3=O)c2)C[C@@H](C#N)C1 [Compound 24, (1r,3r)-3-(4-methyl-4H-1,2,4-triazol-3-yl)-3-(3-(6-(((1-methylcyclobutyl)amino)methyl)-1-oxo-4-(trifluoromethyl)isoindolin-2-yl)phenyl)cyclobutanecarbonitrile] | 7.64 | – | – | 8.4 | 8.77 | 7.82 | 7.89 | (1.8x)
Cn1cnnc1C(c1cccc(N2Cc3c(cc(CNC4(C)CCC4)cc3C(F)(F)F)C2=O)c1)[C@H]1C[C@@H](CC#N)C1 (single isomer, unassigned) [Compound 362] | 7.42 | – | – | 21 | 8.54 | 7.23 | 8.22 | 6.3x
Cn1cnnc1[C@@H](c1cccc(N2Cc3c(cc(CNC4(C)CCC4)cc3C(F)(F)F)C2=O)c1)C1CC(OC(F)F)C1 (single isomer, unassigned) [Compound 388] | 6.06 | – | – | 9.7 | 7.00 | 6.01 | 6.92 | 7.6x
CO[C@H]1C[C@@](c2cc(NC3CCCC3)nc(N3Cc4c(cc(CNC5(C)CCC5)cc4C(F)(F)F)C3=O)c2)(c2nncn2C)C1 [Compound 8, 2-(6-(cyclopentylamino)-4-((1s,3s)-3-methoxy-1-(4-methyl-4H-1,2,4-triazol-3-yl)cyclobutyl)pyridin-2-yl)-6-(((1-methylcyclobutyl)amino)methyl)-4-(trifluoromethyl)isoindolin-1-one] | 7.37 | – | – | 6.9 | 8.48 | 7.64 | 7.96 | 3.9x
CCc1cc(N2Cc3c(cc(CNC4(C)CCC4)cc3C(F)(F)F)C2=O)cc([C@]2(c3nncn3C)C[C@H](OC)C2)c1 [Compound 236, 2-(3-ethyl-5-((1r,3r)-3-methoxy-1-(4-methyl-4H-1,2,4-triazol-3-yl)cyclobutyl)phenyl)-6-(((1-methylcyclobutyl)amino)methyl)-4-(trifluoromethyl)isoindolin-1-one] | 7.19 | – | – | 2.5 | 7.72 | 7.33 | 7.42 | 1.7x
